In US20230091225A1, “Bifunctional chimeric heterocyclic compounds for targeted degradation of androgen receptors and use thereof” (HINOVA PHARMACEUTICALS INC., priority 2019, published 2023):
Read-outs that look alike come from different tables or passages of the source. One block for each compound: values may come before it.

Biological target: T1, androgen receptor (AR) (Homo sapiens, UniProt P10275)
T1 sequence (P10275 1-920): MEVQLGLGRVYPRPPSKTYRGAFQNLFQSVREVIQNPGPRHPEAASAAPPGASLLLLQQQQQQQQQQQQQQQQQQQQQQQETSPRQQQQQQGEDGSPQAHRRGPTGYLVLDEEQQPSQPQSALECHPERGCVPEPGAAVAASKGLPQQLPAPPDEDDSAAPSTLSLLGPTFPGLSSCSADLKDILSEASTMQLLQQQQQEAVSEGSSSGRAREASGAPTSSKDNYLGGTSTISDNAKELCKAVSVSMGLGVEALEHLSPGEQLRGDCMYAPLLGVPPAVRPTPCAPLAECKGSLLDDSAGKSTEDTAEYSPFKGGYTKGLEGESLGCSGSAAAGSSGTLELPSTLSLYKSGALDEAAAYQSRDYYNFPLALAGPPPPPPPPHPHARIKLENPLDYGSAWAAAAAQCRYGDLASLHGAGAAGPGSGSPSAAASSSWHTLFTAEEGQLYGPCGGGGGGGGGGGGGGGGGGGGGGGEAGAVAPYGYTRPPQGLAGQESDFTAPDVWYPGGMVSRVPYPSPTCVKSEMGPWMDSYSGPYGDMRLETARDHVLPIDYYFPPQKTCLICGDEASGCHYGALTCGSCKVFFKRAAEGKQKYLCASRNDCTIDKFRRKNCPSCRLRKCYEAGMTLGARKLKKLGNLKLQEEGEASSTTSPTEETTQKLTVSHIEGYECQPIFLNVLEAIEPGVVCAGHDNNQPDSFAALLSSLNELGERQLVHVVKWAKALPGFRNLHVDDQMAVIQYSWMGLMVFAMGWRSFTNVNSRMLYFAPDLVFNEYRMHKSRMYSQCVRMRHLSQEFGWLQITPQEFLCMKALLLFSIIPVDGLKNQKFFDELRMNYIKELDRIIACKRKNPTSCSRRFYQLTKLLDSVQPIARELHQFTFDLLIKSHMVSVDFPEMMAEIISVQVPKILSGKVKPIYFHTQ
Assay: Degradation of androgen receptor (AR) protein in VCaP cells by ELISA
Assay type: cell-based
Settings: for Dmax: VCaP

[1] = AR degradation, VCaP cells, 16 h, ELISA, Table 3-1, read-out: DC50
[2] = AR degradation, VCaP cells, 16 h, ELISA, Table 3-1, read-out: Dmax (%)
[3] = AR degradation, VCaP cells, 16 h, ELISA, Table 3-2, read-out: DC50
[4] = AR degradation, VCaP cells, 16 h, ELISA, Table 3-2, read-out: Dmax (%)

SMILES: CC1(C)[C@H](Oc2ccc(C#N)c(Cl)c2)C(C)(C)[C@H]1N1Cc2nc(C#CC3CCC(N4CC5(CN(c6cc7c(cc6F)C(=O)N(C6CCC(=O)NC6=O)C7=O)C5)C4)CC3)ccc2C1=O (some centres unmarked) [Compound 341]
- DC50 [1]: 10 to 100 nM
- Dmax [2]: 60 to 80%

SMILES: CC1(C)[C@H](Oc2ccc(C#N)c(Cl)c2)C(C)(C)[C@H]1N1Cc2nc(C#CC3CCC(N4CCC5(CCN(c6cc7c(cc6F)C(=O)N(C6CCC(=O)NC6=O)C7=O)C5)C4)CC3)ccc2C1=O (some centres unmarked) [Compound 366, 2-Chloro-4-((1r,3r)-3-(2-((4-(7-(2-(2,6-dioxopiperidin-3-yl)-6-fluoro-1,3-dioxoisoindolin-5-yl)-2,7-diazaspiro[4.4]nonan-2-yl)cyclohexyl)ethynyl)-5-oxo-5,7-dihydro-6H-pyrrolo[3,4-b]pyridin-6-yl)-2,2,4,4-tetramethylcyclobutoxy) benzonitrile]
- Dmax (%) (AR degradation, VCaP cells, 16 h, ELISA, Table 3-1): ++++ (>80%)
- DC50 [1]: < 10 nM

SMILES: CCOc1cc(O[C@H]2CC[C@H](NC(=O)c3ccc(N4CCC(CN5CCC6(CC5)CN(c5ccc7c(c5)C(=O)N(C5CCC(=O)NC5=O)C7=O)C6)CC4)nn3)CC2)ccc1C#N (some centres unmarked) [Compound 154]
- DC50: < 10 nM
- Dmax: > 80%

SMILES: CC1(C)[C@H](Oc2ccc(C#N)c(Cl)c2)C(C)(C)[C@H]1N1Cc2nc(C#CC3CCC(N4CC5CN(c6cc7c(cc6F)C(=O)N(C6CCC(=O)NC6=O)C7=O)CC5C4)CC3)ccc2C1=O (some centres unmarked) [Compound 340]
- DC50 [1]: < 10 nM
- Dmax [2]: > 80%

SMILES: N#Cc1ccc(O[C@H]2CC[C@H](NC(=O)c3ccc(N4CCC(CN5CCC6(CC5)CN(c5cc7c(cc5F)C(=O)N(C5CCC(=O)NC5=O)C7=O)C6)CC4)nn3)CC2)cc1C(F)(F)F (some centres unmarked) [Compound 152]
- DC50: 10 to 100 nM
- Dmax: > 80%

SMILES: CC1(C)[C@H](Oc2ccc(C#N)c(Cl)c2)C(C)(C)[C@H]1N1Cc2nc(C#CC3CCC(N4CC5CC4CN5c4ccc5c(c4)C(=O)N(C4CCC(=O)NC4=O)C5=O)CC3)ccc2C1=O (single isomer, unassigned) [Compound 352, 2-Chloro-4-((1r,3r)-3-(2-((4-(5-(2-(2,6-dioxopiperidin-3-yl)-1,3-dioxoisoindolin-5-yl)-2,5-diazabicyclo[2.2.1]heptan-2-yl)cyclohexyl)ethynyl)-5-oxo-5,7-dihydro-6H-pyrrolo[3,4-b]pyridin-6-yl)-2,2,4,4-tetramethylcyclobutoxy) benzonitrile]
- DC50 [1]: > 300 nM
- Dmax [2]: 40 to 60%

SMILES: CC1(C)[C@H](Oc2ccc(C#N)c(Br)c2)C(C)(C)[C@H]1N1Cc2nc(C#C[C@H]3CC[C@H](N4CCN(c5cc6c(cc5F)C(=O)N(C5CCC(=O)NC5=O)C6=O)CC4)CC3)ccc2C1=O (some centres unmarked) [Compound 397]
- DC50 [3]: 10 to 100 nM
- Dmax [4]: > 80%

SMILES: COc1cc(O[C@H]2C(C)(C)[C@H](N3Cc4nc(C#C[C@H]5CC[C@H](N6CCN(c7cc8c(cc7F)C(=O)N(C7CCC(=O)NC7=O)C8=O)CC6)CC5)ccc4C3=O)C2(C)C)ccc1C#N (some centres unmarked) [Compound 399]
- DC50 [3]: < 10 nM
- Dmax [4]: > 80%

SMILES: N#Cc1ccc(O[C@H]2CC[C@H](NC(=O)c3ncc(N4CC5(CCN(CC6CCN(c7cc8c(cc7F)C(=O)N(C7CCC(=O)NC7=O)C8=O)CC6)CC5)C4)cn3)CC2)cc1Cl (some centres unmarked) [Compound 150]
- DC50 [1]: > 300 nM
- Dmax: < 40%

SMILES: N#Cc1ccc(O[C@H]2CC[C@H](NC(=O)c3cnn([C@H]4CC[C@H](CN5CCC6(CC5)CN(c5ccc7c(c5)C(=O)N(C5CCC(=O)NC5=O)C7=O)C6)CC4)c3)CC2)cc1Cl (some centres unmarked) [Compound 245]
- DC50 [1]: 10 to 100 nM
- Dmax: 60 to 80%

SMILES: CC1(C)[C@H](Oc2ccc(C#N)c(Cl)c2)C(C)(C)[C@H]1N1Cc2nc(C#CC3CCC(N4CC5CC4CN5c4ccc5c(c4)C(=O)N(C4CCC(=O)NC4=O)C5=O)CC3)cnc2C1=O (some centres unmarked) [Compound 389, 2-Chloro-4-((1r,3r)-3-(2-((4-(5-(2-(2,6-dioxopiperidin-3-yl)-1,3-dioxoisoindolin-5-yl)-2,5-diazabicyclo[2.2.1]heptan-2-yl)cyclohexyl)ethynyl)-5-oxo-5,7-dihydro-pyrrolo[3,4-b]pyrazine-26-yl)-2,2,4,4-tetramethylcyclobutoxy) benzonitrile]
- DC50 [3]: > 300 nM
- Dmax [4]: < 40%

Results, then the compound that gave them:

- DC50 [1]: < 10 nM
- Dmax [2]: > 80%
SMILES: N#Cc1ccc(O[C@H]2CC[C@H](NC(=O)c3cn([C@H]4CC[C@H](CN5CCC6(CC5)CN(c5cc7c(cc5F)C(=O)N(C5CCC(=O)NC5=O)C7=O)C6)CC4)nn3)CC2)cc1Cl (some centres unmarked) [Compound 115]

- DC50 [1]: 10 to 100 nM
- Dmax [2]: > 80%
SMILES: N#Cc1ccc(O[C@H]2CC[C@H](NC(=O)c3ccc(N4CCC(N5CC6(CCN(c7cc8c(cc7F)C(=O)N(C7CCC(=O)NC7=O)C8=O)CC6)C5)CC4)nn3)CC2)cc1C(F)(F)F (some centres unmarked) [Compound 79, N-((1r,4r)-4-(4-cyano-3-(trifluoromethyl)phenoxy)cyclohexyl)-6-(4-(7-(2-(2,6-dioxopiperidin-3-yl)-6-fluoro-1,3-dioxoisoindolin-5-yl)-2,7-diazaspiro[3.5]nonan-2-yl)piperidin-1-yl)pyridazine-3-formamide]

- inhibition at 0.1 µM (percentage of degraded AR at 100 nM, VCaP cells, 16 h, ELISA, read-out: % degradation): > 80%
SMILES: [2H]C([2H])([2H])Oc1cc(O[C@H]2CC[C@H](NC(=O)c3cnc(N4CCC(CN5CCC6(CC5)CN(c5ccc7c(c5)C(=O)N(C5CCC(=O)NC5=O)C7=O)C6)CC4)nn3)CC2)ccc1C#N (some centres unmarked) [Compound 197, N-((1r,4r)-4-(4-cyano-3-(methoxy-d3)phenoxy)cyclohexyl)-3-(4-((2-(2-(2,6-dioxopiperidin-3-yl)-1,3-dioxoisoindolin-5-yl)-2,7-diazaspiro[3.5]nonan-7-yl)methyl)piperidin-1-yl)-1,2,4-triazine-6-carboxamide]

- DC50 [1]: < 10 nM
- Dmax [2]: > 80%
SMILES: N#Cc1ccc(O[C@H]2CC[C@H](NC(=O)c3ccc(N4CCC5(CCN(C6CCN(c7cc8c(cc7F)C(=O)N(C7CCC(=O)NC7=O)C8=O)CC6)C5)C4)nn3)CC2)cc1Cl (some centres unmarked) [Compound 166, N-((1r,4r)-4-(3-chloro-4-cyanophenoxy)cyclohexyl)-6-(7-(1-(2-(2,6-dioxopiperidin-3-yl)-6-fluoro-1,3-dioxoisoindolin-5-yl)piperidine-4-yl)-2,7-diazaspiro[4.4]nonan-2-yl)pyridazine-3-formamide]

- DC50 [1]: < 10 nM
- Dmax [2]: > 80%
SMILES: N#Cc1ccc(O[C@H]2CC[C@H](NC(=O)c3cn([C@H]4CC[C@H](CN5CCC6(CC5)CN(c5ccc7c(c5)C(=O)N(C5CCC(=O)NC5=O)C7=O)C6)CC4)nn3)CC2)cc1Cl (stereo partly drawn) [Compound 114, N-((1r,4R)-4-(3-chloro-4-cyanophenoxy)cyclohexyl)-1-((1r,4R)-4-((2-(2-(2,6-dioxopiperidin-3-yl)-1,3-dioxoisoindolin-5-yl)-2,7-diazaspiro[3.5]nonan-7-yl)methyl)cyclohexyl)-1H-1,2,3-triazole-4-carboxamide]

- DC50 [1]: 10 to 100 nM
- Dmax [2]: 60 to 80%
SMILES: N#Cc1ccc(O[C@H]2CC[C@H](NC(=O)c3ccc(N4CCCN(C[C@@H]5[C@H]6CN(c7cc8c(cc7F)C(=O)N(C7CCC(=O)NC7=O)C8=O)C[C@@H]56)CC4)nn3)CC2)cc1Cl (some centres unmarked) [Compound 93]

- DC50 [1]: < 10 nM
- Dmax [2]: > 80%
SMILES: N#Cc1ccc(O[C@H]2CC[C@H](NC(=O)c3cnc(N4CC5CN(CC6CCN(c7cc8c(cc7F)C(=O)N(C7CCC(=O)NC7=O)C8=O)CC6)CC5C4)nc3)CC2)cc1Cl (some centres unmarked) [Compound 272]

- DC50 [3]: < 10 nM
- Dmax [4]: > 80%
SMILES: N#Cc1ccc(O[C@H]2CC[C@H](NC(=O)c3nnc(N4CCC(CN5CCC6(CC5)CN(c5ccc7c(c5)C(=O)N(C5CCC(=O)NC5=O)C7=O)C6)CC4)o3)CC2)cc1Cl (some centres unmarked) [Compound 414]

- DC50 [1]: < 10 nM
- Dmax [2]: > 80%
SMILES: COc1cc(O[C@H]2CC[C@H](NC(=O)c3ccc(N4CCC(CN5CCC6(CC5)CN(c5ccc7c(c5)C(=O)N(C5CCC(=O)NC5=O)C7=O)C6)CC4)nn3)CC2)ccc1C#N (some centres unmarked) [Compound 276, N-((1r,4r)-4-(4-cyano-3-methoxyphenoxy)cyclohexyl)-6-(4-((2-(2-(2,6-dioxopiperidin-3-yl)-1,3-dioxoisoindolin-5-yl)-2,7-diazaspiro[3.5]nonan-7-yl)methyl)piperidin-1-yl)pyridazine-3-carboxamide]

- DC50 [1]: < 10 nM
- Dmax [2]: > 80%
SMILES: N#Cc1ccc(O[C@H]2CC[C@H](NC(=O)c3ccc(N4CC5(CCN(CC6CCN(c7ccc8c(c7)C(=O)N(C7CCC(=O)NC7=O)C8=O)CC6)CC5)C4)nn3)CC2)cc1Cl (some centres unmarked) [Compound 282, N-((1r,4r)-4-(3-chloro-4-cyanophenoxy)cyclohexyl)-6-(7-((1-(2-(2,6-dioxopiperidin-3-yl)-1,3-dioxoisoindolin-5-yl)piperidine-4-yl)methyl)-2,7-diazaspiro[3.5]nonan-2-yl)pyridazine-3-formamide]
